Columns and labels:
H1299 cells [1] = assay: Wound-healing migration and transwell invasion after EFHD2 knockdown; format: cell-based, human; details: EFHD2 knockdown in H1299 cells
Protocol: FIG. 1. EFHD2 increases the metastatic abilities of lung adenocarcinoma cells. The effects of EFHD2 overexpression in A549 cells and EFHD2-knockdown in H1299 cells on metastatic abilities were determined. (A) Migration ability was analyzed by wound-healing assay. (B) Invasive ability was analyzed by transwell invasion assay. (C) Invadopodia were visualized by colocalized of cortactin (green) and F-actin (red). (D) Quantification of cancer cells with invadopodia. N=100 cells/sample. **, P<0.01.
Wound healing assay. The in vitro migration assay was performed using a Culture-Insert well (ibidi GmbH, German/v). Cancer cells (4.5×10^4 cells) were cultured in suitable media in the device for 24 hr. After removal of the Culture-Insert, cancer cells were cultured for an additional 8 hr. The migration distance of cancer cells was recorded, and the migration area was measured using ImageJ software.
Matrigel invasion assay. For in vitro invasion assay, cancer cells (1.5×10^5 cells in 200 μL) were suspended in the upper half of a PET membrane transwell insert chamber (BD Biosciences), which was coated with Matrigel (1 mg/mL; BD Biosciences), on a 24-well plate. […]

H1299 cells [2] = assay: MTT cell growth after EFHD2 knockdown; format: cell-based, human; details: EFHD2 knockdown in H1299 cells
Protocol: MTT assay. […] The absorbance of the solution at 570 nm was measured by spectrophotometer.
To determine whether EFHD2 contributes to the metastatic abilities of lung adenocarcinoma cells, the pcDNA vector was used to overexpress EFHD2 in A549 cells and shRNA (i.e., shEFHD2) to knockdown EFHD2 in H1299 cells.

shEFHD2: short hairpin RNA directing cleavage of EFHD2 gene RNA; SEQ ID NO: 4, encoded by SEQ ID NO: 1 (GGCCCUCUUCUACAAGUUCGUCAUAGAGCUCUAUGACGAACUUGUAGAAGAGAAAAAAC; expressed or natural sequence)
invasiveness (H1299 cells [1]; transwell invasion assay): opposite effects | migration (H1299 cells [1]; wound-healing assay): opposite effects | cell growth (H1299 cells [2]): did not obviously affect cell growth

— patent US20220000817A1, “PROGNOSIS AND TREATMENT OF METASTATIC CANCER” (Academia Sinica, priority 2018, published 2022)
